The results in this text go back to patent US20240360146A1, “BRUTON'S TYROSINE KINASE AND MUTANT DEGRADER, COMPOSITION AND APPLICATION THEREOF” (HANGZHOU HEALZEN THERAPEUTICS CO., LTD., priority 2021, published 2024).

Structures are written as SMILES.

In this experiment the target is T1, BTK (Homo sapiens, UniProt Q06187).
T1 construct: endogenous in cells; host or cells: Mino cells
T1 sequence (Q06187 whole entry): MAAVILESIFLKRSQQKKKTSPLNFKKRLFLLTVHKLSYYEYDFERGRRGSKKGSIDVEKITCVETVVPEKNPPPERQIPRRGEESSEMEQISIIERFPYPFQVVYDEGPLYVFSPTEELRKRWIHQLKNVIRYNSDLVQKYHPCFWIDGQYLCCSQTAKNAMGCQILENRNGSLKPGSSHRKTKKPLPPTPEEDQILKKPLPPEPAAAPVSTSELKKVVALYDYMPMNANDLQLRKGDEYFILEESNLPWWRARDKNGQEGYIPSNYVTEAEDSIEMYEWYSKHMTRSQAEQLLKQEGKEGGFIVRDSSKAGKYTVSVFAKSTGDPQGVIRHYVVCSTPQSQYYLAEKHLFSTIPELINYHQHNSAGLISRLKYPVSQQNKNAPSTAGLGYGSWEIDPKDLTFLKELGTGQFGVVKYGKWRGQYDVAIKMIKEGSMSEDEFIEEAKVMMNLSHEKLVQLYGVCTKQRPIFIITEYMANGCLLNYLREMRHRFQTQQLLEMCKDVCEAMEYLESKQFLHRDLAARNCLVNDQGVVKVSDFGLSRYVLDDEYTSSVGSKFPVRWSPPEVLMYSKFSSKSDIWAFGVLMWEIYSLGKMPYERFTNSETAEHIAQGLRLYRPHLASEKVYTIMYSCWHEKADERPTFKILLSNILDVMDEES
Kind of experiment: BTK degradation activity test in Mino cells. Format: cell-based. As to conditions: 16 h incubation, Western blot or Elisa. Summed up: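 Mino cells treated with a concentration series of compound for 16 h, then lysed; total protein by BCA. BTK quantified by Western blot or ELISA, degradation rate calculated against blank control, and DC50 fitted from the degradation curve.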
For `CC1(c2ccc(Nc3nc(N4CCCC(N5CCN(C6COC6)C5=O)C4)cnc3C(N)=O)cc2)CCN(C2CCN(c3ccc4c(c3)C(=O)N(C3CCC(=O)NC3=O)C4=O)CC2)CC1` (stereo not shown) [Compound 012, 3-((4-(1′-(2-(2,6-dioxopiperidin-3-yl)-1,3-dioxoisoindol-5-yl)-4-methyl-[1,4′-bipiperidin]-4-yl)phenyl)amino)-5-(3-(3-(oxetan-3-yl)-2-oxoimidazolin-1-yl)piperidin-1-yl)pyrazin-2-carboxamide], the DC50 is < 1 nM.
The value for `CN1CCN([C@@H]2CCCN(c3nnc(C(N)=O)c(Nc4ccc(C5CCN(C[C@H]6CCN(c7cc8c(cc7F)C(=O)N(C7CCC(=O)NC7=O)C8=O)C6)CC5)cc4)n3)C2)C1=O` (stereo partly drawn) [Compound 156, 5-((4-(1-(((3R)-1-(2-(2,6-dioxopiperidin-3-yl)-6-fluoro-1,3-dioxoisoindolin-5-yl)pyrrolidin-3-yl)methyl)piperidin-4-yl)phenyl)amino)-3-((R)-3-(3-methyl-2-oxoimidazolin-1-yl)piperidin-1-yl)-1,2,4-triazin-6-carboxamide] was < 1 nM.
The value for `NC(=O)c1ncc(N2CCCC(N3CCN(C4COC4)C3=O)C2)nc1Nc1ccc2c(c1)CCN(CC1CN(c3ccc4c(c3)C(=O)N(C3CCC(=O)NC3=O)C4=O)C1)C2` (stereo not shown) [Compound 032, 3-((2-((1-(2-(2,6-dioxopiperidin-3-yl)-1,3-dioxoisoindol-5-yl)azetidine-3-yl)methyl)-1,2,3,4-tetrahydroisoquinolin-6-yl)amino)-5-(3-(3-(oxetan-3-yl)-2-oxyimidazolin-1-yl)piperidin-1-yl)pyrazin-2-carboxamide] was < 1 nM.
For `CN1CCN([C@@H]2CCCN(c3nnc(C(N)=O)c(Nc4ccc(C5CCN(C[C@@H]6CCN(c7cc8c(cc7F)C(=O)N(C7CCC(=O)NC7=O)C8=O)C6)CC5)cc4)n3)C2)C1=O` (stereo partly drawn) [Compound 155, 5-((4-(1-(((3S)-1-(2-(2,6-dioxopiperidin-3-yl)-6-fluoro-1,3-dioxoisoindolin-5-yl)pyrrolidin-3-yl)methyl)piperidin-4-yl)phenyl)amino)-3-((R)-3-(3-methyl-2-oxoimidazolin-1-yl)piperidin-1-yl)-1,2,4-triazin-6-carboxamide] the value was < 1 nM; for `NC(=O)c1nnc(N2CCCC(N3CCN(C4COC4)C3=O)C2)nc1Nc1ccc(C2CCN(CC3CCN(c4ccc5c(c4)C(=O)N(C4CCC(=O)NC4=O)C5=O)CC3)CC2)cc1` (stereo not shown) [Compound 062, 5-((4-(1-((1-(2-(2,6-dioxopiperidin-3-yl)-1,3-dioxoisoindol-5-yl)piperidin-4-yl)methyl)piperidin-4-yl)phenyl)amino)-3-(3-(3-(oxetan-3-yl)-2-oxoimidazolin-1-yl)piperidin-1-yl)-1,2,4-triazin-6-carboxamide], < 1 nM; for `CN1CCN([C@@H]2CCCN(c3nnc(C(N)=O)c(Nc4ccc(N5CCN(CC6CCN(c7ccc(NC8CCC(=O)NC8=O)c8c7OCCO8)CC6)CC5)c(F)c4)n3)C2)C1=O` (stereo partly drawn) [Compound 211, 5-((4-(4-((1-(8-((2,6-dioxopiperidin-3-yl)amino)-2,3-dihydrobenzo[b][1,4]dioxan-5-yl)piperidin-4-yl)methyl)piperazin-1-yl)-3-fluorophenyl)amino)-3-((R)-3-(3-methyl-2-oxoimidazolidin-1-yl)piperidin-1-yl)-1,2,4-triazin-6-carboxamide], < 1 nM.
In the case of `CN1CCN([C@@H]2CCCN(c3nnc(C(N)=O)c(Nc4ccc(N5CCN(CC6CCN(c7ccc(N8CCC(=O)NC8=O)c8cccnc78)CC6)CC5)c(F)c4)n3)C2)C1=O` [Compound 199, (R)-5-((4-(4-((1-(5-(2,4-dioxotetrahydropyrimidin-1(2H)-yl)quinolin-8-yl)piperidin-4-yl)methyl)piperazin-1-yl)-3-fluorophenyl)amino)-3-(3-(3-methyl-2-oxoimidazolidin-1-yl)piperidin-1-yl)-1,2,4-triazin-6-carboxamide], the DC50 was < 1 nM.
For `CN1CCN(C2CCCN(c3nnc(C(N)=O)c(Nc4ccc(C5CCN(CC6CCN(c7ccc8c(c7)C(=O)N(C7CCC(=O)NC7=O)C8=O)CC6)CC5)cc4)n3)C2)C1=O` (stereo not shown) [Compound 053, 5-((4-(1-((1-(2-(2,6-dioxopiperidin-3-yl)-1,3-dioxoisoindol-5-yl)piperidin-4-yl)methyl)piperidin-4-yl)phenyl)amino)-3-(3-(3-methyl-2-oxoimidazolin-1-yl)piperidin-1-yl)-1,2,4-triazin-6-carboxamide] the value was < 1 nM.
The value for `CN1CCN(C2CCCN(c3nnc(C(N)=O)c(Nc4ccc(C5CCN(CC6CCN(c7ccc8c(c7)CN(C7CCC(=O)NC7=O)C8=O)CC6)CC5)cc4)n3)C2)C1=O` (stereo not shown) [Compound 087, 5-((4-(1-((1-(2-(2,6-dioxopiperidin-3-yl)-1-oxoisooctyl-5-yl)piperidin-4-yl)methyl)piperidin-4-yl)phenyl)amino)-3-(3-(3-methyl-2-oxyimidazolin-1-yl)piperidin-1-yl)-1,2,4-triazin-6-carboxamide] was < 1 nM; that for `CN1CCN(C2CCCN(c3nc(Nc4ccc(C5(C)CCN(CC6CCN(c7ccc8c(c7)C(=O)N(C7CCC(=O)NC7=O)C8=O)C6)CC5)cc4)c(C(N)=O)cc3F)C2)C1=O` (stereo not shown) [Compound 037, 2-((4-(1-((1-(2-(2,6-dioxopiperidin-3-yl)-1,3-dioxoisoindolin-5-yl)pyrrolidin-3-yl)methyl)-4-methylpiperidin-4-yl)phenyl)amino)-5-fluoro-6-(3-(3-methyl-2-oxoimidazolin-1-yl)piperidin-1-yl)nicotinamide] was > 1 nM.
Consider `NC(=O)c1ncc(N2CCCC(N3CCN(C4CCCC4)C3=O)C2)nc1Nc1ccc2c(c1)CCN(CC1CCN(c3ccc4c(c3)C(=O)N(C3CCC(=O)NC3=O)C4=O)CC1)C2` (stereo not shown) [Compound 030, 5-(3-(3-cyclopentyl-2-oxoimidazolin-1-yl)piperidin-1-yl)-3-((2-((1-(2-(2,6-dioxopiperidin-3-yl)-1,3-dioxoisoindol-5-yl)piperidin-4-yl)methyl)-1,2,3,4-tetrahydroisoquinolin-6-yl)amino)pyrazin-2-carboxamide], for which the DC50 was < 1 nM.
For `NC(=O)c1nnc(N2CCCC(N3CCN(c4ccccc4)C3=O)C2)nc1Nc1ccc2c(c1)CCN(CC1CCN(c3ccc4c(c3)C(=O)N(C3CCC(=O)NC3=O)C4=O)CC1)C2` (stereo not shown) [Compound 094, 5-((2-((1-(2-(2,6-dioxopiperidin-3-yl)-1,3-dioxoisoindol-5-yl)piperidin-4-yl)methyl)-1,2,3,4-tetrahydroisoquinolin-6-yl)amino)-3-(3-(2-oxo-3-phenylimidazolin-1-yl)piperidin-1-yl)-1,2,4-triazin-6-carboxamide] the value was < 1 nM; for `NC(=O)c1nnc(N2CCCC(N3CCN(c4ccccc4)C3=O)C2)nc1Nc1ccc(C2CCN(CC3CCN(c4ccc5c(c4)C(=O)N(C4CCC(=O)NC4=O)C5=O)C3)CC2)cc1` (stereo not shown) [Compound 089, 5-((4-(1-((1-(2-(2,6-dioxopiperidin-3-yl)-1,3-dioxoisoindol-5-yl)pyrrolidin-3-yl)methyl)piperidin-4-yl)phenyl)amino)-3-(3-(2-oxo-3-phenylimidazolin-1-yl)piperidin-1-yl)-1,2,4-triazin-6-carboxamide], < 1 nM.
